The values below come from patent US7470663B2, “Mixtures of insulin drug-oligomer conjugates comprising polyalkylene glycol, uses thereof, and methods of making same” (Biocon Limited, priority 2001, dated 2008).

The test deals with normal fasted beagle dogs. As to the kind of experiment: Activity and inter-subject variability: glucose lowering after oral liquid dosage formulation. It is filed as in vivo. The settings on record: fasted beagles, 0.25 mg/kg oral liquid; compared with polydispersed PEG7AVG-hexyl-insulin, monoconjugate (FIG. 21).

Protocol: The inter-subject variability may be measured by various methods as will be understood by those skilled in the art. The inter-subject variability is preferably calculated as follows. The area under a dose response curve (AUC) (i.e., the area between the dose-response curve and a baseline value) is determined for each subject. The average AUC for all subjects is determined by summing the AUCs of each subject and dividing the sum by the number of subjects. The absolute value of the difference between the subject's AUC and the average AUC is then determined for each subject. The absolute values of the differences obtained are then summed to give a value that represents the inter-subject variability. Lower values represent lower inter-subject variabilities and higher values represent higher inter-subject variabilities.
An effective animal model for evaluating formulations uses normal fasted beagle dogs. These dogs are given 0.25 mg/kg of insulin conjugates to evaluate the efficacy of various formulations.
The protocol for dog experiments calls for a blood glucose measurement at time zero just before a drug is administered. The oral liquid dosage formulation is then squirted into the back of the dog's mouth. In each case, the dogs received 0.25 mg/kg of this solution. Blood is drawn at 15, 30, 60 and 120 minutes and glucose levels are measured and graphed. The lower the glucose levels, the better the activity of the insulin conjugate.

“PEG7-hexyl-insulin, monoconjugate: human insulin monoconjugated at the B29 position with the activated mPEG7-hexyl oligomer of Example 18; non-polydispersed mixture”: the “activity (glucose lowering)” value is reported as “higher activity” and the inter-subject variability entry is “less inter-subject variability”.
Turning to “PEG10-hexyl-insulin, monoconjugate: non-polydispersed mixture of mPEG10-hexyl-insulin, monoconjugates”, the “activity (glucose lowering)” value is listed as “higher activity” and the inter-subject variability entry is given as “less inter-subject variability”.
